Results as given in ChEMBL document CHEMBL5370626, “Targeting the Subpocket Enables the Discovery of Thiadiazole-Pyridazine Derivatives as Glutaminase C Inhibitors” (ACS Med Chem Lett, 2023).
pEC50, pIC50: −log10 of the molar value. Activity calls are given as the source filed them. The rule behind the calls is not given here.

Experiments:
[1] = biological target: T1, Glutaminase kidney isoform, mitochondrial (Homo sapiens) (UniProt O94925); experiment: Inhibition of GAC (unknown origin)
T1 sequence (whole entry): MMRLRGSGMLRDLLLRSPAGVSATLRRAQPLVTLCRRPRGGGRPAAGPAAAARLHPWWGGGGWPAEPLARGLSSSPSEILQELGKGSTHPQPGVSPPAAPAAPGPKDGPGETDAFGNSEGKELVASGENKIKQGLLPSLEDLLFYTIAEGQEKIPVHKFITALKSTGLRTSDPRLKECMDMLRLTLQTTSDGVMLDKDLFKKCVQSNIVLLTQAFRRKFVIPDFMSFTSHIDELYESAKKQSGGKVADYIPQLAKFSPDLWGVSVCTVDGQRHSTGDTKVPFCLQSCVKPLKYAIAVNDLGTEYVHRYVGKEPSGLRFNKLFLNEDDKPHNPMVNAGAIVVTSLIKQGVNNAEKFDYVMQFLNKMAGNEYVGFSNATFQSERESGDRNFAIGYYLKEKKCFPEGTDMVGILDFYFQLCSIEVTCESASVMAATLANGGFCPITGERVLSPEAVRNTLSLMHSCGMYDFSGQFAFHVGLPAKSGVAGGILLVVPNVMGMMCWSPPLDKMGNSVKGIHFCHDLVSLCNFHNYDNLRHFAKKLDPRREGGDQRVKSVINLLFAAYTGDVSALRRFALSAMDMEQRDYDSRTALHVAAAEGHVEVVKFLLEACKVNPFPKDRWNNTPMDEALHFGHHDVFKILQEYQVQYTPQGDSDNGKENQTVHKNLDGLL

[2] = Oral bioavailability in Sprague-Dawley rat plasma at 100 mg/kg measured up to 48 hrs by LC-MS/MS analysis; type: ADME, organism-based
[3] = Clearance in Sprague-Dawley rat plasma at 10 mg/kg, iv measured up to 48 hrs by LC-MS/MS analysis; type: ADME, organism-based
[4] = Volume of distribution in Sprague-Dawley rat plasma at 10 mg/kg, iv measured up to 48 hrs by LC-MS/MS analysis; type: ADME, organism-based
[5] = (§1) Inhibition of human recombinant GAC K320A mutant (73 to 598 residues ) expressed in Escherichia coli BL21 (DE3) cells incubated for 10 mins by fluorometric assay
Homo sapiens = organism: Homo sapiens; experiment: as §1
A549 [6] = experiment: Antiproliferative activity against human A549 cells assessed as reduction in cell viability incubated for 72 hrs by Celltiter-glo assay; type: functional, cell-based; conditions: A549, 72 h
[7] = biological target: T1, Glutaminase kidney isoform, mitochondrial (Homo sapiens); experiment: Inhibition of human GAC in A549 cells assessed as induction of ROS level incubated for 16 hrs by DCFH-DA staining based flow cytometric analysis; type: cell-based; conditions: dose 100-1000 nM
[8] = Half life in Sprague-Dawley rat plasma at 10 mg/kg, iv measured up to 48 hrs by LC-MS/MS analysis; type: ADME, organism-based
[9] = Tmax in Sprague-Dawley rat plasma at 100 mg/kg, po measured up to 48 hrs by LC-MS/MS analysis; type: ADME, organism-based
[10] = Cmax in Sprague-Dawley rat plasma at 100 mg/kg, po measured up to 48 hrs by LC-MS/MS analysis; type: ADME, organism-based; design: dose 100 mg/kg, time < 48 hrs, route po
[11] = Cmax in Sprague-Dawley rat plasma at 10 mg/kg, iv measured up to 48 hrs by LC-MS/MS analysis; type: ADME, organism-based; design: dose 10 mg/kg, time < 48 hrs, route iv
[12] = AUC(0 to t) in Sprague-Dawley rat plasma at 10 mg/kg, iv measured up to 48 hrs by LC-MS/MS analysis; type: ADME, organism-based; design: dose 10 mg/kg, time < 48 hrs, route iv
[13] = AUC(0 to infinity) in Sprague-Dawley rat plasma at 100 mg/kg, po measured up to 48 hrs by LC-MS/MS analysis; type: ADME, organism-based; design: dose 100 mg/kg, time < 48 hrs, route po
[14] = MRT(0 to t) in Sprague-Dawley rat plasma at 100 mg/kg, po measured up to 48 hrs by LC-MS/MS analysis; type: ADME, organism-based
[15] = MRT(0 to t) in Sprague-Dawley rat plasma at 10 mg/kg, iv measured up to 48 hrs by LC-MS/MS analysis; type: ADME, organism-based
[16] = MRT(0 to infinity) in Sprague-Dawley rat plasma at 100 mg/kg, po measured up to 48 hrs by LC-MS/MS analysis; type: ADME, organism-based
A549 [17] = experiment: Antitumor activity against human A549 cells xenografted in Balb/c nude mouse assessed as tumor growth inhibition at 100 mg/kg, po administered once daily 24 days relative to control; type: functional; conditions: A549, 576 h, time 24 day, read-out: TGI
A549 [18] = experiment: Antitumor activity against human A549 cells xenografted in Balb/c nude mouse assessed as tumor growth inhibition at 150 mg/kg, po administered once daily 24 days relative to control; type: functional, organism-based; conditions: time 24.0 day
[19] = Toxicity in Balb/c nude mouse xenografted with human A549 cells assessed as change in body weight at 100 to 150 mg/kg, po administered once daily 24 days; type: organism-based; conditions: in vivo, 576 h, dose 100-150 mg/kg, time 24 day
[20] = biological target: Voltage-gated inwardly rectifying potassium channel KCNH2 (Homo sapiens, UniProt Q12809); experiment: Inhibition of human ERG expressed in HEK293 cells at -80 mV holding potential by whole cell patch-clamp assay; type: toxicity, cell-based
[21] = biological target: Voltage-dependent L-type calcium channel subunit alpha-1C (Homo sapiens, UniProt Q13936); experiment: Inhibition of Cav1.2 channel (unknown origin) incubated for 30 mins by Fluo-4 staining based FLIPR assay; type: toxicity; conditions: 0.5 h
Voltage-dependent L-type calcium channel subunit alpha-1C, sequence (Q13936 whole entry): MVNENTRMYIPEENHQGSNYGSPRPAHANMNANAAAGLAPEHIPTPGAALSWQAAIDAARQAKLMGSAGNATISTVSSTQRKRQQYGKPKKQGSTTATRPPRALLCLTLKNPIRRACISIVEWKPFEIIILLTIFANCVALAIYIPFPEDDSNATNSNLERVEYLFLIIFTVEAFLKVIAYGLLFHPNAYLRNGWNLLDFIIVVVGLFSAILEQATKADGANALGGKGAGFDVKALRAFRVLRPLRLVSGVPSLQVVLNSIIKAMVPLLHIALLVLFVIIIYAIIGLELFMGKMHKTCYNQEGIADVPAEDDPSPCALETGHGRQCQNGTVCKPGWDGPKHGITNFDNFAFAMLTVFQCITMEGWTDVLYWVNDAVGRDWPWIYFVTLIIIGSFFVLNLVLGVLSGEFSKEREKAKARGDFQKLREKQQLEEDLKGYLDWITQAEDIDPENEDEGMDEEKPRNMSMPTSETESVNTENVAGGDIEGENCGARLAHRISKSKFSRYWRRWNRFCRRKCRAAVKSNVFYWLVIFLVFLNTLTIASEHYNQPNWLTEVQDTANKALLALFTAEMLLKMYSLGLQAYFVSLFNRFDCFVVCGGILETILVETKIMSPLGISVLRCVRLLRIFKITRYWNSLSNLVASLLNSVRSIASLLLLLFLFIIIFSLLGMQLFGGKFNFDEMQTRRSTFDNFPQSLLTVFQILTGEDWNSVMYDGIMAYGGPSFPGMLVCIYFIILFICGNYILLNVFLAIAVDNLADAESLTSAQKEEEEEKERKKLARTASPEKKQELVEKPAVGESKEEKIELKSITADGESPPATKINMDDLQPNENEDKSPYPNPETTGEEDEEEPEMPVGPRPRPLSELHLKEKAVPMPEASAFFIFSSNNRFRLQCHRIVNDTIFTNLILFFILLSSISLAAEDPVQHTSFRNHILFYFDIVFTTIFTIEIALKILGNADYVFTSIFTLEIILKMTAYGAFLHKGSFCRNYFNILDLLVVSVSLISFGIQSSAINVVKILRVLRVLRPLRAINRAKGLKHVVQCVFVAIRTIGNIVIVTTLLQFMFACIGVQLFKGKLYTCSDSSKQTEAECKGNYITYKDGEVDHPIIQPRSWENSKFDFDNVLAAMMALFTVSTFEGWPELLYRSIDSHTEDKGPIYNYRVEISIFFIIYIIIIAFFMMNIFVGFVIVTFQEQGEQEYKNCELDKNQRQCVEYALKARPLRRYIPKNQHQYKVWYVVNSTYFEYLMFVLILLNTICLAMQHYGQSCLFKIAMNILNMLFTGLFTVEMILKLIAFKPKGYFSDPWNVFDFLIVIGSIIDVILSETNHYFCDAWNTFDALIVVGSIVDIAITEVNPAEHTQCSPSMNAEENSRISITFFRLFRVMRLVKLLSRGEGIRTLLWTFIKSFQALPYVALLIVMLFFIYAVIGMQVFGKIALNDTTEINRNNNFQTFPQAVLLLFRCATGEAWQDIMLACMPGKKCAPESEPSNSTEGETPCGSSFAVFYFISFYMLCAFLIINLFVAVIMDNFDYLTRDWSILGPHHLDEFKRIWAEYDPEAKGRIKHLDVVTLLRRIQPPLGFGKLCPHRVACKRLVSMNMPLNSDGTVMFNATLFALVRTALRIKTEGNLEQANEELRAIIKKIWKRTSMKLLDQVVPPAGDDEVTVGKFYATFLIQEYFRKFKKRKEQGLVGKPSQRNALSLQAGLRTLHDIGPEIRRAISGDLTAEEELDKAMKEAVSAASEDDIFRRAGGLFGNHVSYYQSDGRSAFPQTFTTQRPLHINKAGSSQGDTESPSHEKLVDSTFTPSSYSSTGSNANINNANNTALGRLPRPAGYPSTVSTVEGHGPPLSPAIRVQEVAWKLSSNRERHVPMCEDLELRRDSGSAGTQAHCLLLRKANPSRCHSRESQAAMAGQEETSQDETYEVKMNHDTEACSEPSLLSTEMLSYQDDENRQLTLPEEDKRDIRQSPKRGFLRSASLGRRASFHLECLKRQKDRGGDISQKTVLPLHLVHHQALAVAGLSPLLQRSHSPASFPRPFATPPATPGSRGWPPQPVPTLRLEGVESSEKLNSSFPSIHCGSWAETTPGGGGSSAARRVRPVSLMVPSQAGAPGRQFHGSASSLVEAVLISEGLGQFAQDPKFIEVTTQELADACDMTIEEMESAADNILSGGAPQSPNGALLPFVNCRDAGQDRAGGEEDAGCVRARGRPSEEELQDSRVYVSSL

[22] = biological target: Sodium channel protein type 5 subunit alpha (Homo sapiens, UniProt Q14524); experiment: Inhibition of human Nav1.5 channel stably expressed in CHO cells at -120 mV holding potential by whole cell patch-clamp assay; type: toxicity, cell-based
Sodium channel protein type 5 subunit alpha, sequence (Q14524 whole entry): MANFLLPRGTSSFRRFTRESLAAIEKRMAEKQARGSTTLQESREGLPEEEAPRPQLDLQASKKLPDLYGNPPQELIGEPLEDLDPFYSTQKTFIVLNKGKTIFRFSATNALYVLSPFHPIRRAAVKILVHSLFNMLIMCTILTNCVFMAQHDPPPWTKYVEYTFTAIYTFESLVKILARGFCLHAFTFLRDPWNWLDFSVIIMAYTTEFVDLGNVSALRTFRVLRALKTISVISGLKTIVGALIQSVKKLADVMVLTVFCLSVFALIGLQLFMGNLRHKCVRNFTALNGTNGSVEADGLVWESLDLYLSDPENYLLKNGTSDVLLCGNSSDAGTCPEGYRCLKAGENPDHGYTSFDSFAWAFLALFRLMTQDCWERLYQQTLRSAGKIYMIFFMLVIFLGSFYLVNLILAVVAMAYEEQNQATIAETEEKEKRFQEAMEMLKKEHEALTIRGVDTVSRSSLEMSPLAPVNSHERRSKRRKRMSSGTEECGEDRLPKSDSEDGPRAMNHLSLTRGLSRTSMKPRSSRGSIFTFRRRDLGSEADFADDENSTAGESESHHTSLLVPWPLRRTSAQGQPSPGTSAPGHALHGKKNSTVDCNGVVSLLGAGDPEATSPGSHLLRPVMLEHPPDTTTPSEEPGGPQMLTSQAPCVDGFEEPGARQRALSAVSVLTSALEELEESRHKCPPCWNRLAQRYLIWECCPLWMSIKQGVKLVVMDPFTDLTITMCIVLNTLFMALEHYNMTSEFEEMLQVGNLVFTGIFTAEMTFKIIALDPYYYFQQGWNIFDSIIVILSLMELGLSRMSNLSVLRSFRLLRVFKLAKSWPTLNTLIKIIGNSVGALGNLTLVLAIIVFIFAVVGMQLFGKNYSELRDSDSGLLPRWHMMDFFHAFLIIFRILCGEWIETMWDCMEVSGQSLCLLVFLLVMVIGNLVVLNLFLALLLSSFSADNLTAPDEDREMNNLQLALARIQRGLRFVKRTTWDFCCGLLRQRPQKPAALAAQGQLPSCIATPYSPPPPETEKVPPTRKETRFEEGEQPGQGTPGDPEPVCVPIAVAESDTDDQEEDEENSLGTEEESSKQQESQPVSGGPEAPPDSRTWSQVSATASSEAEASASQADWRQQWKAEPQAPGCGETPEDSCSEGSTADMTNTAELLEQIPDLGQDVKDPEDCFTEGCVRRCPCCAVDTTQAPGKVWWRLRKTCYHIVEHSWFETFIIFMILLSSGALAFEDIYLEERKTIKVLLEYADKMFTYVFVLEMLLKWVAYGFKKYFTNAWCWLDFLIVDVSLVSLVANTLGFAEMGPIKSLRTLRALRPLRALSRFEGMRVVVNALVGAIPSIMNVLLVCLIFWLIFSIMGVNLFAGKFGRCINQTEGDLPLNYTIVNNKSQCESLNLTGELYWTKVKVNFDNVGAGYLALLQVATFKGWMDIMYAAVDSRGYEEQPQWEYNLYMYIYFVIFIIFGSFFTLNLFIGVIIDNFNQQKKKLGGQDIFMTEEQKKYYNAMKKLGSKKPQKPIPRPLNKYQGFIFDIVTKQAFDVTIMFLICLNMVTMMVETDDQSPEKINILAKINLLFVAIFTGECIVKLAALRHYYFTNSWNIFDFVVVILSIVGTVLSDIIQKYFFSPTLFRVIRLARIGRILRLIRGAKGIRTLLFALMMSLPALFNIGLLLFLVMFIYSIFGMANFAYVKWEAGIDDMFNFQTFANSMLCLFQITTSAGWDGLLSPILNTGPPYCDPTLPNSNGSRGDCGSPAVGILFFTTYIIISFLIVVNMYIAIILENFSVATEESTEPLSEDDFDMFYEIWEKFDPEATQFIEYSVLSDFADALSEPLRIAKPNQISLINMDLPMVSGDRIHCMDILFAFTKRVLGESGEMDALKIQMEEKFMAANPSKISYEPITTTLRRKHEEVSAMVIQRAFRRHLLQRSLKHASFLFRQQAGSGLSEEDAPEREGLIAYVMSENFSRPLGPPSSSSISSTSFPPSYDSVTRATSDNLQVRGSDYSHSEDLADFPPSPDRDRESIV

[23] = Mutagenicity in Salmonella typhimurium TA98 measured at 1.5 to 1000 ug per well for 48 to 72 hrs by mini-Ames test; type: toxicity, Salmonella enterica subsp. enterica serovar Typhimurium; conditions: in vivo; dose lower 1.5 µg, time lower 48 hrs, dose upper 1000 µg, time upper 72 hrs
[24] = Mutagenicity in Salmonella typhimurium TA100 measured at 1.5 to 1000 ug per well for 48 to 72 hrs by mini-Ames test; type: toxicity, Salmonella enterica subsp. enterica serovar Typhimurium; conditions: in vivo; dose lower 1.5 µg, time lower 48 hrs, dose upper 1000 µg, time upper 72 hrs
[25] = Mutagenicity in Salmonella typhimurium TA1537 measured at 1.5 to 1000 ug per well for 48 to 72 hrs by mini-Ames test; type: toxicity, Salmonella enterica subsp. enterica serovar Typhimurium; conditions: in vivo; dose lower 1.5 µg, time lower 48 hrs, dose upper 1000 µg, time upper 72 hrs
[26] = Mutagenicity in Salmonella typhimurium TA98 measured at 1.5 to 1000 ug per well for 48 to 72 hrs in presence of S9 liver fraction by mini-Ames test; type: toxicity, subcellular, Salmonella enterica subsp. enterica serovar Typhimurium; conditions: dose lower 1.5 µg, time lower 48 hrs, dose upper 1000 µg, time upper 72 hrs
[27] = Mutagenicity in Salmonella typhimurium TA1535 measured at 1.5 to 1000 ug per well for 48 to 72 hrs in presence of S9 liver fraction by mini-Ames test; type: toxicity, subcellular, Salmonella enterica subsp. enterica serovar Typhimurium; conditions: dose lower 1.5 µg, time lower 48 hrs, dose upper 1000 µg, time upper 72 hrs
[28] = Mutagenicity in Salmonella typhimurium TA1537 measured at 1.5 to 1000 ug per well for 48 to 72 hrs in presence of S9 liver fraction by mini-Ames test; type: toxicity, subcellular, Salmonella enterica subsp. enterica serovar Typhimurium; conditions: dose lower 1.5 µg, time lower 48 hrs, dose upper 1000 µg, time upper 72 hrs
[29] = Mutagenicity in Escherichia coli WP2 uvrA measured at 1.5 to 1000 ug per well for 48 to 72 hrs in presence of S9 liver fraction by mini-Ames test; type: toxicity, subcellular; conditions: dose lower 1.5 µg, time lower 48 hrs, dose upper 1000 µg, time upper 72 hrs

INH [1]: 8.9 nM
bioavailability [2]: 5%
clearance [3]: 36.4 mL/min/kg
Vd [4]: 15.7 L/kg
pEC50 [5]: 7.99
pIC50 (A549 [6]): 8.39
inhibition [7]: Dose-Dependent Effect
half-life [8]: 304 min
Tmax [9]: 2 h
Cmax [10]: 487 ng/mL
Cmax [11]: 6500 ng/mL
AUC(0-t) at 48 h [12]: 4630 ng·h/mL
AUC(0-inf) [13]: 2330 ng·h/mL
MRT last at 48 h [14]: 3.73 h
MRT last at 48 h [15]: 1.52 h
MRT inf [16]: 3.83 h
SMILES: O=C(Cc1cccc(Oc2ccccc2)c1)Nc1nnc(N[C@@H]2CCN(c3cccnn3)C2)s1
INH (Homo sapiens): 107 nM
inhibition in vivo at 100 mg/kg (A549 [17]): 51.4%
TGI (A549 [18]): Active
Activity [19]: Non-Toxic
pIC50 [20]: 5.12
INH [21]: 21.71 µM
INH [22]: > 30 µM
Activity [23]: Non-Toxic
Activity [24]: Non-Toxic
Activity [25]: Non-Toxic
Activity [26]: Non-Toxic
Activity [27]: Non-Toxic
Activity [28]: Non-Toxic
Activity [29]: Non-Toxic
